From patent US20250154202A1, “CYCLIC EPITOPE TAGS” (BIONTECH SE, priority 2022, published 2025) come the findings set out here.

The test system of series [1] is anti-ALFA VHH. The series can be described thus: binding affinity to the anti-ALFA VHH (log(agonist) vs. response, variable slope).
The target of series [2] is NbALFA. The series can be described thus: SPR measurements of NbALFA binding (Biacore T200, multi cycle kinetics, 1:1 binding model). The conditions noted are these: 25° C., HBS-EP+ buffer, biotinylated NbALFA captured. A digest of the protocol: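 NbALFA captured via biotin on CAPture chip flow cell 2, streptavidin quenched with biocytin; multi-cycle kinetics at 25° C in HBS-EP+, surface regenerated between cycles. Responses double-referenced (FC2−FC1, minus 0 nM blank) and fitted to a 1:1 binding model.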
(In SPR one partner is held on a chip, and binding of the other changes the refractive index at the surface.)

The nature of series [3]: Plasma stability, mouse plasma. The conditions noted are these: for half-life: plasma.
The nature of series [4]: Plasma stability, human plasma. The conditions noted are these: human plasma, 37° C.
Description: (§1) Plasma stability measurements were performed by spiking 5 μl of a 1 mM compound stock solution in DMSO into 495 μl of human or mouse Li-heparin plasma (Innovative Research, Cat. No, IPLALIH5OML (human) and IMS-BC-N (Balb C mouse). The spiked plasma was distributed in 50 μl aliquots into capped PCR tubes for incubation at 37° C. At each time point (0, 2, 6, 24 hours*) 3*aliquots were withdrawn from the incubator. Enzymatic reactions were quenched directly after withdrawal by adding 100 μl of acetonitrile/formic acid=99/1 (v/v). Quenched samples were stored at ambient temperature until the end of the incubation period (24 hrs*). After centrifugation, the supernatant was transferred into fresh vials and analyzed by LC-MS/MS in ESI positive mode (Waters ACQUITY UPLC I-Class System (SM-FTN) with Xevo TQD triple quadrupole mass spectrometer with control software Waters MassLynx). […] Values below the limit of quantification (0.1 μM) and outliers of triplicate results were excluded from further calculations. An exponential regression curve was fitted onto the concentration results. Half-life times were calculated from the slope of the regression curve (t1/2=ln(2)/slope).
(§2) For some samples, as indicated below, the incubation time was 6 hours. The 24 hour data was measured in triplicates whereas the 6 hour data was measured in duplicates.
Series [5] deals with target expressing cells previously incubated with the NbALFA×anti-Target Adaptor-Protein. The series can be described thus: FACS cell binding analysis of linear and cyclic ALFA-peptides (AlexaFluor680). The series is classed as cell-based. The conditions noted are these: for binding to target expressing cells (AlexaFluor680 signal): 4 nM to 1024 nM peptide, 30 min at 4° C., after 100 nM NbALFA×anti-Target Adaptor-Protein; for binding on the controls: target-negative cells, pre-incubation with PBS or NbALFA×non-binder. The protocol:
Cells were seeded in a 96-well microtiter plate (round button) to a final density of 2×10^5 and incubated in the presence of 100 nM NbALFA×anti-Target purified Adaptor-Protein (binds with one moiety to ALFA peptide and with the other moiety to cell presented target) or, as a negative control in the presence of 100 nM NbALFA×non-binder (binds with one moiety to the ALFA peptide and with the other moiety to a target which is not available in this experiment) or PBS for 30 min at 4° C. Cells were then washed and incubated with different concentrations (4 nM, 16 nM, 64 nM, 256 nM, and 1024 nM) of the linear [Ac(C-Alexa680)(PEG6)PSRLEEELRRRLTE-NH2] or cyclic [Ac(C-Alexa680)(PEG6)PSRLE(E)ELR(K)RLTE-NH2] ALFA peptide for another 30 min at 4° C. After rewashing, the cells were measured in FACS Canto II (BD Biosciences). AlexaFluor680 signal was used to detect the binding of ALFA peptides. Therefore, excitation Laser Line 633 nm was used to detect the AlexaFluor 680 signal.

The conditions of series [6]: mouse, in vivo, iv.
Description: (§3) C57BL/6NRj mice were obtained from Janvier Labs, France. In this study, approximately 8-week-old female mice were used.
(§4) Prior to administration into the lateral tail vein, the body weight of the animals was determined to calculate the individual volume of the injecting compound (5 mL/kg body weight). The injection, as well as the blood sampling, were carried out under short anesthesia (0.7 L/min O2, 1.7 L/min N2O, 2% Isoflurane). Blood was sampled from the retro-orbital plexus using microhematocrit capillary (Ø 0.8 mm) and collected into K3EDTA tubes, at the time points indicated in Table 10.
(§5) The plasma was separated by centrifugation (10,000×g; 10 min; 4° C.), aliquoted into microtubes and stored at −80° C.
(§6) 20 μl of each plasma sample was transferred into PCR tubes. 80 μl IS (internal standard)-solution in acetonitrile+1% FA was added for protein precipitation.
(§7) The sample tubes were sealed with pierceable cap mats and vortexed. After homogenization for 5 min in an ultrasonic bath the samples were centrifuged at 3000 rpm at ambient temperature for 15 min. 1 μl supernatant was injected into the instrument for LC-MS/MS analysis. For LC-MS/MS quantification a ExionLC™ UHPLC coupled to a QTRAP® 6500+ mass spectrometer (Sciex) was used in ESI positive mode. Parameters for mass spectrometry were listed in the tables below, Chromatographic separation was achieved on a ACQUITY UPLC BEH C18 column (Waters, 1.7 μm, 2.1×50 mm).
(§8) Compound concentrations in plasma samples were calculated using a 10-point calibration curve in plasma over a concentration range of 1 to 1000 ng/ml. QC samples of 1, 10, 100, 1000 ng/ml were analyzed before and after each dose group. Samples exceeding the upper limit of quantification (1000 ng/ml) were re-analyzed after 10-fold dilution in blank plasma. All calculations were performed in Sciex OS Version 1.7.0.36606 and MS-EXCEL®.
(§9) Pharmacokinetic parameters were calculated for both compounds using the software Kinetica (version 4.4.1, Thermo Scientific) applying a non-compartmental model (NCA).
A short description of series [7]: in vivo. The conditions noted are these: female, C57BL/6NRj, mouse, iv, 10 mg/kg.
Description: as §3, §4, §5, §6, §7, §8, §9
Series [8] in a line: in vitro. The conditions noted are these: Balb C, mouse, plasma.
Series [9] can be described thus: in vitro. The conditions noted are these: human, plasma, Conc. (% of T0).
Description: as §1, §2
The conditions of series [10]: human, plasma.
Description: as §1, §2
For series [11] the following is noted: mouse, plasma.
For series [12] the following is noted: mouse, in vivo, iv; for AUC(0-inf): AUC0-inf; for AUC(0-t): AUC0-t.
Description: as §3, §4, §5, §6, §7, §8, §9
The mark [13] stands for this setting: Balb C, mouse, Li-heparin plasma.
Where [14] appears, read: mouse plasma, 37° C., timepoint 0 h.
[15] abbreviates: mouse plasma, 37° C., timepoint 2 h.
[16] abbreviates: mouse plasma, 37° C., timepoint 6 h.
Where [17] appears, read: mouse plasma, 37° C., timepoint 24 h.

pEC50, pKd: −log10 of the molar value. Like-named read-outs stand apart in the source and are kept apart here. Bridge positions count the residues as written; N and C are the ends. Primed or numbered codes have the meaning given here. Peptide text beside a SMILES is read from it. C(Alexa680) = cysteine labeled with Alexa680 (AlexaFluor680); PEG6′ = PEG6 spacer Some results are limits rather than exact numbers.

`CC(=O)N[C@@H](CO)C(=O)N[C@@H](CCCNC(=N)N)C(=O)N[C@@H](CC(C)C)C(=O)N[C@@H](CCC(=O)O)C(=O)N[C@H]1CC(=O)NCCCC[C@@H](C(=O)N[C@@H](CCCNC(=N)N)C(=O)N[C@@H](CC(C)C)C(=O)N[C@H](C(=O)N[C@@H](CCC(=O)O)C(N)=O)[C@@H](C)O)NC(=O)[C@H](CCCNC(=N)N)NC(=O)[C@H](CC(C)C)NC(=O)[C@H](CCC(=O)O)NC1=O` [SD15196, Ac-Ser-Arg-Leu-Glu-(cyclo5)Asp-Glu-Leu-Arg-(cyclo9)Lys-Arg-Leu-Thr-Glu-NH2] (Ac-SRLEDELRKRLTE-NH2; lactam 5-9): the LogEC50 in [1] (best-fit values, log(agonist) vs. response, variable slope) came out at 2.576. This compound also gave a negative-log EC50 (pEC50) in series [1] (binding to anti-ALFA VHH) of 6.42. For the same compound, the pKd in series [2] was 9.36. The same compound registered a ka in [2] of 1.81e+07 M⁻¹ s⁻¹. The kd in series [2] turned out to be 0.0079 s⁻¹. Moreover, the share remaining at 2 h, 10 µM worked out at 94.3% in series [3] (setting [13]) and 91.4% in series [4] (human, human Li-heparin plasma, Conc. (% of T0), timepoint 2 h). Further, the fraction remaining at 6 h, 10 µM in [3] (setting [13]) came to 80.5%; in series [4] (human, human Li-heparin plasma, Conc. (% of T0), timepoint 6 h), 71.5%. Also, the share remaining at 24 h, 10 µM in series [3] (setting [13]) was 52.5%; in series [4] (human, Li-heparin plasma, Conc. (% of T0), timepoint 24 h), 31.7%. The “Conc. (% of T0)” value in [3] (setting [14]) and in series [4] (timepoint 0 h) was 100.0 % of T0 in each case. Moreover, the “Mean (compound concentration)” value in series [3] (setting [14]) is 2.42; in series [3] (setting [15]), 2.28; in series [3] (setting [16]), 1.95; in series [3] (setting [17]) it was 1.27; in [4] (timepoint 0 h), 2.42; in series [4] (timepoint 2 h) it was 2.21. Besides, the “Mean (compound concentration)” value in [4] (timepoint 6 h) is on record as 1.73; in series [4] (timepoint 24 h) it was 0.77. Besides, the “Tube 2 (compound concentration)” value in series [3] (setting [14]) was determined as 2.424; in [3] (setting [15]), 2.329; in series [3] (setting [16]), 2.008; in series [3] (setting [17]) it was 1.273; in series [4] (timepoint 0 h), 2.424; in [4] (timepoint 2 h), 2.234. The entries for the “Tube 2 (compound concentration)” value in series [4] (timepoint 6 h) and in series [4] (timepoint 24 h) were 1.803 and 0.761, respectively. Moreover, the “Tube 3 (compound concentration)” value in series [3] (setting [14]) amounted to 2.497; in series [3] (setting [15]), 2.237; in series [3] (setting [16]) it was 1.874; in series [3] (setting [17]) it was 1.201; in series [4] (timepoint 0 h) it was 2.518; in [4] (timepoint 2 h), 2.212. Besides, the “Tube 3 (compound concentration)” value in series [4] (timepoint 6 h) is listed as 1.545; in series [4] (timepoint 24 h), 0.694. The “Tube 1 (compound concentration)” value in [3] (mouse plasma, 37° C., timepoint 0 h, calibration range 0.1 to 10 μM) was 2.336; in [3] (setting [15]), 2.277; in [3] (setting [16]), 1.96; in series [3] (setting [17]) it was 1.334; in series [4] (timepoint 0 h, calibration range 0.1 to 10 μM), 2.314; in [4] (timepoint 2 h), 2.188. Moreover, the “Tube 1 (compound concentration)” value in series [4] (timepoint 6 h) was 1.843; in series [4] (timepoint 24 h), 0.844. For the same compound, the half-life in series [3] (mouse, Flag (half-life, assay exceeded), mouse plasma, 37° C.) is greater than 1440 min; in series [3] (mouse, Half-life time, mouse plasma, 37° C., incubation 24 h (triplicates) or 6 h (duplicates)), 1570 min; in [4] (human, plasma, Half-life time, incubation 24 h (triplicates) or 6 h (duplicates)), 871 min.
Take “Ac(C-Alexa680)(PEG6)PSRLE(E)ELR(K)RLTE-NH2 [cyclic ALFA peptide]”: in series [5], the “binding to target expressing cells (AlexaFluor680 signal)” value was “bind only to target expressing cells previously incubated with the NbALFA×anti-Target Adaptor-Protein” and the “binding on the controls” value is “No binding”.
For “Ac(C-Alexa680)(PEG6)PSRLEEELRRRLTE-NH2 ({Ac-C(Alexa680)-PEG6′}-PSRLEEELRRRLTE-NH2) [linear ALFA peptide, linear ALFA-peptide conjugated to AlexaFluor680, reference compound]” the same measures were “bind only to target expressing cells previously incubated with the NbALFA×anti-Target Adaptor-Protein” and “No binding”.
As for “Ac-PSRLEEELRRRLTE-NH2 [SD14316, Ac-Pro-Ser-Arg-Leu-Glu-Glu-Glu-Leu-Arg-Arg-Arg-Leu-Thr-Glu-NH2]”, in series [6] (3 mg/kg), the AUCextra is ~1.5^(1) %, the Vc is given as ~4574^(1) mL/kg, the t1/2effective is recorded as ~2.6^(1) min and the t1/2initial is recorded as ~1.6^(1) min. Besides, in series [6] (3 mg/kg), the t1/2terminal was ~4.5^(1) min, the λinitial is on record as 0.45^(2) min^−1 and the λterminal is listed as 0.15^(2) min^−1. Moreover, in series [6] (10 mg/kg), the AUCextra is recorded as 0.2%, the Vc is given as ~4175^(1) mL/kg, the t1/2effective is listed as 2.8 min and the t1/2initial is ~1.3^(1) min. Moreover, in series [6] (10 mg/kg), the λinitial is 0.52^(2) min^−1 and the λterminal was 0.16 min⁻¹. In series [7], this compound displayed a half-life of 4.3 min. For the same compound, in series [8], the fraction remaining at 2 h, 10 µM turned out to be 72.7% and the share remaining at 6 h, 10 µM was determined as 33.8%. In series [9], this compound displayed a share remaining at 1 h, 10 µM of 89%; a share remaining at 3 h, 10 µM of 78.9%; a share remaining at 6 h, 10 µM of 66.9%. Moreover, the half-life in [10] (Flag (half-life, assay exceeded)) was greater than 360 min. For the same compound, in series [10] (Half-life time), the half-life was 646 min. Also, the half-life in series [11] is 228 min. Moreover, in series [12] (3 mg/kg), the mean residence time (MRT inf) was 4 min, the mean residence time (MRT last) is 3.7 min, the time to peak (Tmax) is 5 min and the clearance is 962 mL/min/kg. In [12] (3 mg/kg), this compound displayed a total exposure AUC(0-inf) of roughly 52 ng·h/mL, an area under the curve AUC(0-t) of 51 ng·h/mL, a C0 of roughly 656 ng/mL and a Cmax of 306 ng/mL. Further, in series [12] (3 mg/kg, Vss), the distribution volume (Vd) turned out to be 3.89 L/kg. The compound further registered a Vd in [12] (3 mg/kg, Vz) of roughly 6.3 L/kg. In series [12] (10 mg/kg), the mean residence time MRT inf was 4.1 min, the MRT last is 4 min, the time of peak concentration (Tmax) was 5 min and the clearance was 724 mL/min/kg. In [12] (10 mg/kg), the AUC(0-inf) came to 230 ng·h/mL, the area under the curve AUC(0-t) was 230 ng·h/mL, the C0 is roughly 2400 ng/mL and the Cmax is 1660 ng/mL. The distribution volume (Vd) in [12] (10 mg/kg, Vss) is 2.95 L/kg. The compound further had a Vd in series [12] (10 mg/kg, Vz) of 4.48 L/kg.

A word on the pEC50: it is −log10 of the EC50, conventionally taken in molar units. Low readings indicate a large EC50, high ones a small EC50. Broadly, the pKd is the Kd on a negative log10 scale, so that one unit is a factor of ten. The low end stands for a high Kd, the high end for a low Kd. In general, share remaining refers to what is left of the initial amount, in per cent. High values mean greater stability, low ones a greater loss. Broadly, the half-life is the time in which the quantity being followed falls by half. Read a high half-life as slow loss. In general, MRT inf refers to a mean duration of stay, worked out from the concentration-time curve. Usually MRT last stands for a mean duration of stay, worked out from the concentration-time curve. The Tmax is the time from dosing to the highest level. The term clearance denotes a measure of how efficiently the substance is removed, as volume per time. For orientation: AUC(0-inf) means the area under the concentration-time curve extrapolated to infinity. The AUC(0-t) is the area under the concentration-time curve up to a stated or last time point. Lower therefore signals low exposure. As a reminder, the Cmax is the maximum level reached in the sampled fluid or tissue. As usually defined, the Vd is a proportionality between amount in the body and measured concentration, not a real space. A higher Vd goes with extensive tissue distribution.
